No end group written: not given here.
Tested on: cells
Test: MTT assay for cytotoxicity
Format: cell-based
Conditions: within a range of used concentrations; FIGS. 3a and 3b

| Sequence | cytotoxicity |
| --- | --- |
| GQGFSYPYKAVFSTQ [BFP 1, Gly-Gln-Gly-Phe-Ser-Tyr-Pro-Tyr-Lys-Ala-Val-Phe-Ser-Thr-Gln] | neither BFP 1 nor BFP 2 are toxic to cells |
| VEHDKEFFHPRYHHR [BFP 2, Val-Glu-His-Asp-Lys-Glu-Phe-Phe-His-Pro-Arg-Tyr-His-His-Arg] | neither BFP 1 nor BFP 2 are toxic to cells |
